Data reported in US20260191863A1, “PYRROLOPYRIMIDINE COMPOSITIONS FOR TREATMENT OF ITK MEDIATED CONDITIONS” (ACLARIS THERAPEUTICS, INC., priority 2022, published 2026).
Several values for one entry are separate records, joined by “and”; a condition that tells them apart may be missing. Equal entries are not always repeated. Where two headings read alike, the source gives them in different places.

Experiments:
ITK and JAK3 = test: SAD exploratory PD, all biomarker readouts; assay type: in vivo, human
Method: Secondary Endpoints—Compound I plasma concentrations. Mean change from baseline in ex vivo stimulated pSTAT5 and pSTAT1 (signal transducer and activator of transcription); and in ex vivo stimulated IFNγ mRNA (interferon gamma messenger ribonucleic acid).
Results: Sixty-three subjects completed the SAD study. […] Peak concentrations were reached within 2 hours after dosing.

[1] = tested on: αCD3 & αCD28 stimulated IL2mRNA; test: MAD ex vivo PD: αCD3 & αCD28 stimulated IL2 mRNA; assay type: in vivo; details: Homo sapiens
Text: Exploratory Endpoints—Mean change from baseline in cellular, extracellular (secreted), and/or message markers of inflammation.
EC50 and IC50 data for αCD3 & αCD28 stimulated IL2mRNA, IL15 stimulated IFNγ protein, and αCD3 & IL15 stimulated IFNγ protein is shown in table 9.

[2] = Phase 1 single ascending dose (SAD) study: pharmacokinetics, food effect, formulation bridging; assay type: in vivo, human; details: for AUC(0-t): read-out: AUC0-24; for Vd/F: read-out: Vz/F
Method: Type of Study—This was an FIH, randomized, observer-blind, placebo-controlled study designed to evaluate the safety, tolerability, PK, and PD of Compound I in healthy subjects. The study consisted of: single ascending dose (SAD) cohorts (1-80 mg/day) plus formulation bridging and food effect (FE) cohorts.
Approximately 64 male and female subjects were enrolled into 8 planned cohorts in the SAD study. In each cohort, a total of 8 subjects were randomized to receive a single oral capsule dose of Compound I (n=6) or placebo (n=2) in the morning with approximately 240 mL of water after an overnight fast of at least 8 hours.
Cohort 4 was an FE (food effect) cohort where subjects received Compound I capsules or placebo, fasted on Day 1 and Compound I or placebo after a high-fat, high-calorie breakfast on Day 8 after a 7-day washout period.
Cohort 5 was a formulation bridging cohort where subjects will receive Compound I capsules or placebo on Day 1 and Compound I tablets or placebo on Day 8 after a 7-day washout period.
The dosage form of Compound I in Cohorts 6, 7, and 8 were capsules and the subjects will receive a single oral dose of Compound I (n=6) capsules or placebo (n=2) on Day 1 after an overnight fast of at least 8 hours.

ITK (IFNγ mRNA) = test: Pre-clinical αCD3/αCD28 stimulated IFNγ mRNA; assay type: cell-based; details: Homo sapiens
[3] = tested on: IL15 stimulated IFNγ protein; test: Pre-clinical human whole blood IL-15/IFNγ (5 hr); assay type: cell-based
[4] = both sexes, human, in vivo, po, 1 mg, single oral dose 1 mg, capsule, fasted
[5] = both sexes, human, in vivo, po, 3 mg, single oral dose 3 mg, capsule, fasted
[6] = both sexes, human, in vivo, po, 5 mg, single oral dose 5 mg, capsule, fasted
[7] = both sexes, human, in vivo, po, 15 mg, single oral dose 15 mg, capsule, fasted
[8] = both sexes, human, in vivo, po, 15 mg, single oral dose 15 mg, capsule, fed (high-fat, high-calorie breakfast)
[9] = both sexes, human, in vivo, po, 25 mg, single oral dose 25 mg, capsule, fasted
[10] = both sexes, human, in vivo, po, 25 mg, single oral dose 25 mg, tablet
[11] = both sexes, human, in vivo, po, 50 mg, single oral dose 50 mg, capsule, fasted
[12] = both sexes, human, in vivo, po, 80 mg, single oral dose 80 mg, capsule, fasted
[13] = single oral dose 15 mg, capsule, fasted
[14] = single oral dose 15 mg, capsule, fed (high-fat, high-calorie breakfast)

C=CC(=O)N1C[C@H](Nc2ncnc3[nH]cc([C@H]4CC4(F)F)c23)CC[C@@H]1C [Compound I, 1-((2S,5R)-5-((5-((R)-2,2-difluorocyclopropyl)-7H-pyrrolo[2,3-d]pyrimidin-4-yl)amino)-2-methylpiperidin-1-yl)prop-2-en-1-one]
Modulation of all PD biomarker readouts (ITK and JAK3): dose- and time-dependent modulation
PD markers of ITK (αCD3/αCD28 induced IL2 and IFNγ mRNA) and JAK3 (IL2 induced pSTAT5) activation (ITK and JAK3): dose-dependently inhibited
Inhibition of biomarker readouts (ITK and JAK3; 2 hours post treatment, doses of 15 mg to 80 mg): Near-complete inhibition
EC50 [1]: 0.0019 µg/mL and 5.3 nM
Difference in PK parameters between capsule and tablet formulation ([2]; 25 mg single dose): No significant difference
Plasma concentration dose dependence ([2]; SAD): increased in a dose-dependent manner
Time to peak plasma concentration after dosing ([2]; SAD): ≤ 2 h
Exposure dose proportionality (Cmax and AUC) ([2]; SAD, 1-80 mg single dose): dose-proportional
half-life ([2]; both sexes, human, in vivo, oral, SAD, 1-80 mg single dose, read-out: Half-life (range across doses)): 1.5 to 2.5 h
Tmax ([2]; both sexes, human, in vivo, oral, SAD, 1-80 mg single dose, read-out: Tmax (range across doses)): 0.7 to 1.2 h
AUC(0-inf) [2, 4]: 5.95 ng·h/mL
Cmax [2, 4]: 2.71 ng/mL
AUC(0-t) [2, 4]: 5.95 ng·h/mL
half-life ([2]; both sexes, human, in vivo, po, 1 mg, single oral dose 1 mg, capsule, fasted, read-out: T1/2 (converted)): 1.51 h
Tmax ([2]; both sexes, human, in vivo, po, 1 mg, single oral dose 1 mg, capsule, fasted, read-out: Tmax): 0.674 h
Vd/F [2, 4]: 384 L
AUC(0-inf) [2, 5]: 15.8 ng·h/mL
Cmax [2, 5]: 5.9 ng/mL
AUC(0-t) [2, 5]: 15.4 ng·h/mL
half-life ([2]; both sexes, human, in vivo, po, 3 mg, single oral dose 3 mg, capsule, fasted, read-out: T1/2 (converted)): 1.53 h
Tmax ([2]; both sexes, human, in vivo, po, 3 mg, single oral dose 3 mg, capsule, fasted, read-out: Tmax): 0.757 h
Vd/F [2, 5]: 419 L
AUC(0-inf) [2, 6]: 33.5 ng·h/mL
Cmax [2, 6]: 11.9 ng/mL
AUC(0-t) [2, 6]: 33.1 ng·h/mL
half-life ([2]; both sexes, human, in vivo, po, 5 mg, single oral dose 5 mg, capsule, fasted, read-out: T1/2 (converted)): 1.53 h
Tmax ([2]; both sexes, human, in vivo, po, 5 mg, single oral dose 5 mg, capsule, fasted, read-out: Tmax): 1.07 h
Vd/F [2, 6]: 331 L
AUC(0-inf) [2, 7]: 96.7 ng·h/mL
Cmax [2, 7]: 31.5 ng/mL
AUC(0-t) [2, 7]: 95.7 ng·h/mL
half-life ([2]; both sexes, human, in vivo, po, 15 mg, single oral dose 15 mg, capsule, fasted, read-out: T1/2 (converted)): 1.61 h
Tmax ([2]; both sexes, human, in vivo, po, 15 mg, single oral dose 15 mg, capsule, fasted, read-out: Tmax): 1 h
Vd/F [2, 7]: 360 L
AUC(0-inf) [2, 8]: 93.9 ng·h/mL
Cmax [2, 8]: 17.6 ng/mL
AUC(0-t) [2, 8]: 105 ng·h/mL
half-life ([2]; both sexes, human, in vivo, po, 15 mg, single oral dose 15 mg, capsule, fed (high-fat, high-calorie breakfast), read-out: T1/2 (converted)): 1.73 h
Tmax ([2]; both sexes, human, in vivo, po, 15 mg, single oral dose 15 mg, capsule, fed (high-fat, high-calorie breakfast), read-out: Tmax): 5 h
Vd/F [2, 8]: 399 L
AUC(0-inf) [2, 9]: 154 ng·h/mL
Cmax [2, 9]: 47 ng/mL
AUC(0-t) [2, 9]: 153 ng·h/mL
half-life ([2]; both sexes, human, in vivo, po, 25 mg, single oral dose 25 mg, capsule, fasted, read-out: T1/2 (converted)): 1.57 h
Tmax ([2]; both sexes, human, in vivo, po, 25 mg, single oral dose 25 mg, capsule, fasted, read-out: Tmax): 1.35 h
Vd/F [2, 9]: 366 L
AUC(0-inf) [2, 10]: 199 ng·h/mL
Cmax [2, 10]: 63.6 ng/mL
AUC(0-t) [2, 10]: 197 ng·h/mL
half-life ([2]; both sexes, human, in vivo, po, 25 mg, single oral dose 25 mg, tablet, read-out: T1/2 (converted)): 1.75 h
Tmax ([2]; both sexes, human, in vivo, po, 25 mg, single oral dose 25 mg, tablet, read-out: Tmax): 1.07 h
Vd/F [2, 10]: 317 L
AUC(0-inf) [2, 11]: 428 ng·h/mL
Cmax [2, 11]: 143 ng/mL
AUC(0-t) [2, 11]: 426 ng·h/mL
half-life ([2]; both sexes, human, in vivo, po, 50 mg, single oral dose 50 mg, capsule, fasted, read-out: T1/2 (converted)): 1.84 h
Tmax ([2]; both sexes, human, in vivo, po, 50 mg, single oral dose 50 mg, capsule, fasted, read-out: Tmax): 1.24 h
Vd/F [2, 11]: 310 L
AUC(0-inf) [2, 12]: 676 ng·h/mL
Cmax [2, 12]: 196 ng/mL
AUC(0-t) [2, 12]: 675 ng·h/mL
half-life ([2]; both sexes, human, in vivo, po, 80 mg, single oral dose 80 mg, capsule, fasted, read-out: T1/2 (converted)): 2.53 h
Tmax ([2]; both sexes, human, in vivo, po, 80 mg, single oral dose 80 mg, capsule, fasted, read-out: Tmax): 1.22 h
Vd/F [2, 12]: 432 L
Effect of high-calorie, high-fat meal on AUC, bioavailability, T1/2 ([2]; single 15 mg dose): no significant effect
Reduction of Cmax by a high-calorie, high-fat meal ([2]; single 15 mg dose): 31%
CL/F ([2]; single oral dose 1 mg, capsule, fasted): 168 L/h
CL/F ([2]; single oral dose 3 mg, capsule, fasted): 190 L/h
CL/F ([2]; single oral dose 5 mg, capsule, fasted): 149 L/h
CL/F [2, 13]: 155 L/h
Tmax [2, 13]: 1.09 h
CL/F [2, 14]: 160 L/h
Tmax [2, 14]: 4.99 h
CL/F ([2]; single oral dose 25 mg, capsule, fasted): 162 L/h
CL/F ([2]; single oral dose 25 mg, tablet): 126 L/h
CL/F ([2]; single oral dose 50 mg, capsule, fasted): 117 L/h
CL/F ([2]; single oral dose 80 mg, capsule, fasted): 118 L/h
PK profile (linearity, absorption) ([2]; up to 80 mg single dose): PK was linear and absorption was fast
EC50 (ITK (IFNγ mRNA)): 17.3 ± 3 nM
Potency relative to Ritlecitinib, IL-15/IFNγ (5 hr) [3]: (6.5 fold*)
IC50 ([3]; Homo sapiens): 0.0029 µg/mL and 8 nM
EC50 ([3]; Homo sapiens, 5 h, read-out: Human Whole Blood EC50, IL-15/IFNγ (5 hr)): 8 nM
